Test results taken from paper PMC2606939 (The Journal of General Physiology, 2009).

Assays:
CLC-0 [1] = molecular target: CLC-0 (Torpedo marmorata, UniProt P21564, E166G); assay: cell-based
CLC-0 [2] = molecular target: CLC-0 (Torpedo marmorata, UniProt P21564, E166A); assay: cell-based
Sequence of CLC-0 (Torpedo marmorata, UniProt P21564, E166A) (P21564 whole entry E166A): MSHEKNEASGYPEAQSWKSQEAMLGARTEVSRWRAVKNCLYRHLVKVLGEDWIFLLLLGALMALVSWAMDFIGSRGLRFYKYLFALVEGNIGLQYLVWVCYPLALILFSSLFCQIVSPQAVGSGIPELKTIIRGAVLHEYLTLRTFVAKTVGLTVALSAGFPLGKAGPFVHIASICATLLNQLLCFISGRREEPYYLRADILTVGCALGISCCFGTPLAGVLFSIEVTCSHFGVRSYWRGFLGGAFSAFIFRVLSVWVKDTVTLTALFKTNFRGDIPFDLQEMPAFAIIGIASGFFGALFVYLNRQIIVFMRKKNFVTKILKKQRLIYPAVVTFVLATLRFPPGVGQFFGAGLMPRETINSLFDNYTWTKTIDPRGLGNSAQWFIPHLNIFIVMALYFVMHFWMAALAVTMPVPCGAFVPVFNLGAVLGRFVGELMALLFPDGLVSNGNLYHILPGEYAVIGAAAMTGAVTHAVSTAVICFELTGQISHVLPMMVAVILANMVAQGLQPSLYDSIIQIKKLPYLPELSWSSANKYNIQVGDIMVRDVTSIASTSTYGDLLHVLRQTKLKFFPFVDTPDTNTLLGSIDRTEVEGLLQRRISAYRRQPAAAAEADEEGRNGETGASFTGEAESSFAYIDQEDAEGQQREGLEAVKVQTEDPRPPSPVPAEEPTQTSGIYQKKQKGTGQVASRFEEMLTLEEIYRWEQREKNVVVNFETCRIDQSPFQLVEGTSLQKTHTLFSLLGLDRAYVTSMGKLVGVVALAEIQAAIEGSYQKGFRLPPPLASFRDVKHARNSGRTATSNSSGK

Sequence of CLC-0 (Torpedo marmorata, UniProt P21564, E166G) (P21564 whole entry E166G): as the sequence (P21564 whole entry E166A) above, with A166G counted along it

IC50 (CLC-0 [1]): 160 ± 10 µM
IC50 (CLC-0 [2]): 120 ± 20 µM
SMILES: CCCCCCCC(=O)O [OA, octanoate]
